According to US20040242671A1, “Use of 2-oxo-1-pyrrolidine derivatives for the preparation of a drug” (priority 2001, published 2004):

Assays:
[1] = tested on: MPTP-lesioned marmoset model of Parkinson's disease; test: L-DOPA-induced dyskinesia score, MPTP-lesioned marmoset (Example 2); format: in vivo, marmosets (Callithrix jacchus); settings: for Dyskinesia: first hour post drug administration, vs L-DOPA + vehicle, p<0.05
Procedure: (§1) This study was designed to investigate whether the compound ((2S)-2-[(4S)-4-(2,2-difluorovinyl)-2-oxopyrrolidinyl]butanamide) (named compound A) has anti-dyskinetic activity in the 1-methyl-4-phenyl-1,2,3,6-tetrahydropyridine (MPTP)—lesioned marmoset model of Parkinson's disease. The effect of the compound A on L-3,4-dihydroxyphenylalanine (L-DOPA)-induced dyskinesias and alleviation of anti parkinsonism symptoms was investigated.
(§2) The study was performed on nine adult marmosets (Callithrix jacchus) bred in a closed colony. The marmosets were rendered parkinsonian by subcutaneous injection of 2 mg/kg MPTP for 5 consecutive days. The marmosets were allowed to recover for 18 weeks until their parkinsonism became stable. The degree of activity and disability before and after MPTP treatment was assessed using a combination of scales that measure locomotor activity, mobility, bradykinesia and posture. Animals were treated with L-DOPA (13.9+/−0.8 mg/kg b.i.d. for 6 weeks) to prime them to elicit dyskinesia.
(§3) All drugs were administered orally in a volume of 5 ml/kg via a syringe in the animal's home cage. The animals were immediately transferred to the experimental cage (60 cm×55 cm×75 cm, with the perch 25 cm from floor of cage) for behavioural assessment. Vehicle was apple juice in all cases.
3)Dyskinesia—non-parametric measures based on the following scale
Dyskinesia score: 0=Absent, 1=Mild, fleeting, 2=Moderate, not interfering with normal activity, 3=Marked, at times interfering with normal activity, 4=Severe, continuous, replacing normal activity.
(§4) Behaviour was assessed for 6 hours post drug administration. Behavioural test 1, activity, was assessed every 5 minutes for 6 hours post drug administration. Behavioural tests 2 and 3, parkinsonian disability and dyskinesia, respectively, were assessed for 10 minutes every 30 minutes over the course of 6 hours, by post hoc analysis of video-recordings by an observer blinded to the treatment. The score given in each 10 minutes time period represents the maximum score achieved during that time period.
Four doses of compound A drug (1 mg/kg, 3 mg/kg, 10 mg/kg and 30 mg/kg) in combination with a single dose of L-DOPA were tested using a randomized treatment schedule. The actions of each of these four combination therapies were compared with that of L-DOPA plus the appropriate vehicle. Thus, a total of five treatments were given.

[2] = tested on: MPTP-lesioned marmoset model of Parkinson's disease; test: Parkinsonian disability score with L-DOPA, MPTP-lesioned marmoset (Example 2); format: in vivo, marmosets (Callithrix jacchus); settings: for Disability scores: compound A 1, 3, 10 and 30 mg/kg + L-DOPA, p>0.05
Procedure: as §1, §2, §3
(§5) 2) Parkinsonian disability—non-parametric measures based on the following scales
(§6) a) Range of movement score: 0=no movement, 1=movement of head on the floor of the cage, 2=movement of limbs, but no locomotion, on the floor of the cage, 3=movement of head or trunk on wall of cage or perch, 4=movement of limbs, but no locomotion, on wall of cage or perch, 5=walking around floor of cage or eating from hopper on floor, 6=hopping on floor of cage, 7=climbing onto wall of cage or perch, 8=climbing up and down the walls of the cage or along perch, 9=running, jumping, climbing between cage walls/perch/roof, uses limbs through a wide range of motion and activity.
(§7) b) Bradykinesia score: 0=normal speed and initiation of movement, 1=mild slowing of movement, 2=moderate slowing, difficulty initiating and maintaining movement, marked freezing, 3=akinetic, unable to move, with prolonged freezing episodes
(§8) c) Postural abnormality score: 0=normal, upright, holds head up, normal balance, 1=abnormal, crouched, face down, may lose balance. […]
as §4, with “The score given in each 10 minutes time period represents the maximum score achieved during that time period.” left out

[3] = A. J. GOWER et al., Eur. J. Pharmacol., 222, (1992), 193-203; cited from earlier work
[4] = tested on: MPTP-lesioned marmoset model of Parkinson's disease; test: Activity and on-time with Ropinirole, MPTP-lesioned marmoset (Example 3); format: in vivo, marmosets (Callithrix jacchus); settings: for "on-time" / Activity: P<0.01; for Enhancement of "on-time": six hour experiment
Procedure: (§9) This study was designed to investigate whether Levetiracetam has a potential as an adjunctive anti-parkinsonian agent to dopamine replacement therapy in the 1-methyl-4-phenyl-1,2,3,6-tetrahydropyridine (MPTP)-lesioned marmoset model of Parkinson's disease. The effect of Levetiracetam on Ropinirole alleviation of parkinsonism symptoms was investigated. The study was performed on six adult marmosets (Callithrix jacchus; 4 female, 2 male). The marmosets were rendered parkinsonian by subcutaneous injection of 2 mg/kg MPTP for 5 consecutive days. The marmosets were allowed to recover for 18 weeks until their parkinsonism was stable. The degree of activity and disability before and after MPTP treatment were assessed using a combination of scales that measure locomotor activity, mobility, bradykinesia and posture. Animals were treated with L-DOPA 12 mg/kg b.i.d. for 6 weeks. After this time, animals were used for assessment of potential symptomatic antiparkinsonian therapy. All drugs were administered orally in a volume of 5 ml/kg via a syringe in the animal's home cage. The animals were immediately transferred to an experimental cage (60 cm×55 cm×75 cm, with the perch 25 cm from floor of cage) for behavioural assessment. Vehicle was apple juice in all cases. The doses were 3.75 mg/kg of Ropinirole in combination with Levetiracetam at 13, 30 and 60 mg/kg. Behaviour was assessed for 6 hours post drug administration. 1) Activity—a quantitative assessment using computer-based activity monitors was obtained every 5 minutes for the duration of the experiment. Behavioural test 1 (activity) was assessed every 5 minutes for 6 hours post drug administration. Behavioural tests 2 (parkinsonian disability) was assessed for 10 minutes every 30 minutes over the course of 6 hours, by post hoc analysis of video-recordings by an observer blinded to the treatment. The score given/achieved in each 10 minute time period was presented. Cumulated data for parkinsonian disability, range of movement, bradykinesia and postural abnormalities were analysed with a non-parametric repeated measures one-way ANOVA (Friedman's test) followed by Dunn's multiple comparison test (Graphpad Prism version 3).

[5] = tested on: MPTP-lesioned marmoset model of Parkinson's disease; test: L-DOPA-induced dyskinesia score, MPTP-lesioned marmoset (Example 1); format: in vivo, marmosets (Callithrix jacchus); settings: for Dyskinesia: first hour post drug administration, vs L-DOPA + vehicle
Procedure: (§10) This study was designed to investigate whether levetiracetam has anti-dyskinetic activity in the 1-methyl-4-phenyl-1,2,3,6-tetrahydropyridine (MPTP)-lesioned marmoset model of Parkinson's disease. The effect of levetiracetam on L-3,4-dihydroxyphenylalanine (L-DOPA)-induced dyskinesias and alleviation of parkinsonism symptoms was investigated.
as §2, with “seven” for “nine”, “(12.5” for “(13.9+/−0.8”
as §3
3)Dyskinesia—non-parametric measures based on the following scale Dyskinesia score: 0=Absent, 1=Mild, fleeting, 2=Moderate, not interfering with normal activity, 3=Marked, at times interfering with normal activity, 4=Severe, continuous, replacing normal activity.
as §4
Table 1 outlines the randomised treatment schedule i.e. three doses of levetiracetam drug in combination with a single dose of L-DOPA. The actions of each of these three combination therapies were compared with that of L-DOPA plus the appropriate vehicle. Thus, a total of four treatments were given.

[6] = tested on: MPTP-lesioned marmoset model of Parkinson's disease; test: Parkinsonian disability with Ropinirole, MPTP-lesioned marmoset (Example 3); format: in vivo, marmosets (Callithrix jacchus); settings: for Parkinsonian disability: Levetiracetam 13 mg/kg + Ropinirole 3.75 mg/kg
Procedure: as §9, with “1) Activity—a quantitative assessment using computer-based activity monitors was obtained every 5 minutes for the duration of the experiment.” left out, “presented.” for “presented. Cumulated data for parkinsonian disability, range of movement, bradykinesia and postural abnormalities were analysed with a non-parametric repeated measures one-way ANOVA (Friedman's test) followed by Dunn's multiple comparison test (Graphpad Prism version 3).”

[7] = tested on: MPTP-lesioned marmoset model of Parkinson's disease; test: Parkinsonian disability score with L-DOPA, MPTP-lesioned marmoset (Example 1); format: in vivo, marmosets (Callithrix jacchus); settings: for Disability scores: levetiracetam 13, 30 and 60 mg/kg + L-DOPA 12 mg/kg, p>0.05
Procedure: as §10
as §2, with “seven” for “nine”, “(12.5” for “(13.9+/−0.8”
as §3, §5, §6, §7, §8
as §4, with “The score given in each 10 minutes time period represents the maximum score achieved during that time period.” left out

[8] = any time-point after one hour post drug administration
[9] = first hour post drug administration
[10] = Levetiracetam 13 mg/kg + Ropinirole 3.75 mg/kg
[11] = Levetiracetam 30 mg/kg + Ropinirole 3.75 mg/kg
[12] = L-DOPA alone (13.9+/−0.8 mg/kg), oral

CC[C@@H](C(N)=O)N1C[C@H](C=C(F)F)CC1=O [compound A, (2S)-2-[(4S)-4-(2,2-difluorovinyl)-2-oxopyrrolidinyl]butanamide]
Dyskinesia ([1]; compound A 10 mg/kg + L-DOPA 13.9+/−0.8 mg/kg oral): significantly reduced | Dyskinesia ([1]; compound A 30 mg/kg + L-DOPA 13.9+/−0.8 mg/kg oral): significantly reduced | Dyskinesia scores ([1]; compound A 1, 3, 10 and 30 mg/kg + L-DOPA, any time-point after one hour post drug administration, p>0.05): no significant differences | Disability scores [2, 8]: no significant differences | Disability scores [2, 9]: no significant differences | Reversal of parkinsonian symptoms at peak effect, compared with L-DOPA monotherapy ([2]; compound A 1 to 30 mg/kg + L-DOPA 13.9+/−0.8 mg/kg): same magnitude

CC[C@H](C(N)=O)N1CCCC1=O [(R)-(+)-α-ethyl-2-oxo-1-pyrrolidine-acetamide]
Activity in the treatment of epilepsy [3]: completely devoid of activity

CC[C@@H](C(N)=O)N1CCCC1=O [levetiracetam, (S)-α-ethyl-2-oxo-1-pyrrolidineacetamide]
"on-time" [4, 10]: significantly increased | Activity [4, 10]: significantly increased | Enhancement of "on-time" [4, 10]: approximately 82% | "on-time" [4, 11]: significantly increased | Activity [4, 11]: significantly increased | Enhancement of "on-time" [4, 11]: ~69% | Dyskinesia ([5]; levetiracetam 13 mg/kg + L-DOPA 12 mg/kg oral, p<0.01): significantly reduced | Dyskinesia ([5]; levetiracetam 30 mg/kg + L-DOPA 12 mg/kg oral, p<0.05): significantly reduced | Dyskinesia ([5]; levetiracetam 60 mg/kg + L-DOPA 12 mg/kg oral, p<0.01): significantly reduced | Dyskinesia scores ([5]; levetiracetam 13, 30 and 60 mg/kg + L-DOPA 12 mg/kg, any time-point after one hour post drug administration, p>0.05): no significant differences | Potentiation of the alleviation of parkinsonism by Ropinirole ([6]; Levetiracetam 13 mg/kg + Ropinirole 3.75 mg/kg oral): significantly potentiated | Parkinsonian disability ([6]; during 3-4 hour time period, P<0.05): significantly reduced | Parkinsonian disability ([6]; over the experiment as a whole, P<0.05): significantly reduced | Potentiation of the alleviation of parkinsonism by Ropinirole ([6]; Levetiracetam 30 mg/kg + Ropinirole 3.75 mg/kg oral): significantly potentiated | Range of movement ([6]; Levetiracetam 30 mg/kg + Ropinirole 3.75 mg/kg, during the 0-1 hour time period, P<0.05): significantly increased | Potentiation of the alleviation of parkinsonism by Ropinirole ([6]; Levetiracetam 60 mg/kg + Ropinirole 3.75 mg/kg oral): not | Disability scores [7, 8]: no significant differences | Disability scores [7, 9]: no significant differences | Reversal of parkinsonian symptoms at peak effect, compared with L-DOPA monotherapy ([7]; levetiracetam 13 to 60 mg/kg + L-DOPA 12 mg/kg): same magnitude

N[C@@H](Cc1ccc(O)c(O)c1)C(=O)O [L-DOPA, L-3,4-dihydroxyphenylalanine]
Dyskinesia accompanying alleviation of parkinsonian symptoms [1, 12]: accompanied by dyskinesia | Effect on parkinsonian symptoms [2, 12]: reversed parkinsonian symptoms | Dyskinesia accompanying alleviation of parkinsonian symptoms ([5]; L-DOPA 12 mg/kg alone, oral): severe dyskinesia | Effect on parkinsonian symptoms ([7]; L-DOPA 12 mg/kg alone, oral): reversed parkinsonian symptoms
